Measured values from patent publication US9302999B2, “Substituted triazoles as herbicides” (E. I. DU PONT DE NEMOURS AND COMPANY, priority 2012, dated 2016).

Columns and labels:
Assay type in all cases: in vivo
[1] = tested on: ducksalad (HETLI, Heteranthera limosa); assay: Test G paddy, alone and in combination: ducksalad; conditions: evaluated after 14 days
Description: (§1) Seeds of smallflower umbrella sedge (CYPDI, Cyperus difformis) and ducksalad (HETLI, Heteranthera limosa) were sown on the soil surface in two separate quadrants of 11 cm tubs filled with steam pasteurized Tama soil. Simultaneously, plantings of barnyardgrass (ECHCG, Echinochloa crus-galli) and japonica rice (ORYSP, Oryza sativa) were established in separate “plug” flats. Plants were grown in a greenhouse using supplemental lighting to maintain a photoperiod of approximately 16 h; daytime and nighttime temperatures were approximately 27-30° C. and 19-22° C., respectively. After 8 days, barnyardgrass plants were transplanted to one of the remaining quadrants of the tub, and the water level was adjusted to a final depth of 3 cm. Herbicide application timing was targeted at the 2.0 to 2.5 leaf stage and the plants were treated with test chemicals formulated in a non-phytotoxic solvent. Treated plants and controls were maintained in a greenhouse for 14 days, after which time all species were compared to controls and visually evaluated. Plant response ratings are summarized in Tables G1 through G3, and are based on a scale of 0 to 100 where 0 is no effect and 100 is complete control. A dash (-) response means no test result.

[2] = tested on: dayflower, (VA) (Virginia dayflower, Commelina virginica); assay: Test E pre-/postemergence: dayflower, (VA); conditions: scale 0 to 100
Excerpt: (§2) Seeds of plant species selected from corn (Zea mays), soybean (Glycine max), velvetleaf (Abutilon theophrasti), lambsquarters (Chenopodium album), poinsettia, wild (wild poinsettia, Euphorbia heterophylla), pigweed, palmer (palmer pigweed, Amaranthus palmeri), waterhemp (common waterhemp, Amaranthus rudis), smartweed (ladysthumb smartweed, Polygonum persicaria), surinam grass (Brachiaria decumbens), crabgrass, large (large crabgrass, Digitaria sanguinalis), crabgrass, Brazil (Brazilian crabgrass, Digitaria horizontalis), panicum, fall (fall panicum, Panicum dichotomiflorum), foxtail, giant (giant foxtail, Setaria faberii), foxtail, green (green foxtail, Setaria viridis), goosegrass (Eleusine indica), johnsongrass (Sorghum halepense), ragweed (common ragweed, Ambrosia elation), barnyardgrass (Echinochloa crus-galli), sandbur (southern sandbur, Cenchrus echinatus), arrowleaf sida (Sida rhombifolia), ryegrass, Italian (Italian ryegrass, Lolium multiflorum), dayflower, (VA) (Virginia dayflower, Commelina virginica), field bindweed (Convolvulus arvensis), cocklebur (common cocklebur, Xanthium strumarium), morningglory (Ipomoea coccinea), nightshade (eastern black nightshade, Solanum ptycanthum), kochia (Kochia scoparia), nutsedge, yellow (yellow nutsedge, Cyperus esculentus) and beggarticks (hairy beggarticks, Bidens pilosa) were planted into a silt loam soil and treated preemergence with test chemicals formulated in a non-phytotoxic solvent mixture which included a surfactant. At the same time, plants selected from these crop and weed species were planted in pots containing a growing medium comprising spaghnum peat moss, vermiculite, wetting agent and starter nutrients and treated with postemergence applications of some of the test chemicals formulated in the same manner. Plants ranged in height from 2 to 18 cm for postemergence treatments (1- to 4-leaf stage).
(§3) Treated plants and controls were maintained in a greenhouse for 14 to 21 days, after which time all species were compared to controls and visually evaluated. Plant response ratings, summarized in Table E, are based on a scale of 0 to 100 where 0 is no effect and 100 is complete control. A dash (-) response means no test result.

[3] = tested on: smallflower umbrella sedge (CYPDI, Cyperus difformis); assay: Test G paddy, alone and in combination: smallflower umbrella sedge; conditions: evaluated after 14 days
Description: as §1

[4] = tested on: japonica rice (ORYSP, Oryza sativa); assay: Test G paddy, alone and in combination: japonica rice; conditions: evaluated after 14 days
Description: as §1

[5] = tested on: ragweed (common ragweed, Ambrosia elation); assay: Test E pre-/postemergence: ragweed; conditions: Preemergence, scale 0 to 100
Excerpt: as §2, §3

[6] = tested on: barnyardgrass (ECHCG, Echinochloa crus-galli); assay: Test G paddy, alone and in combination: barnyardgrass; conditions: evaluated after 14 days
Description: as §1

[7] = tested on: morningglory (Ipomoea coccinea); assay: Test E pre-/postemergence: morningglory; conditions: Preemergence, scale 0 to 100
Excerpt: as §2, §3

[8] = tested on: waterhemp_RES2 (ALS/HPPD resistant common waterhemp, Amaranthus rudis); assay: Test F postemergence: waterhemp_RES2; conditions: scale 0 to 100
Excerpt: (§4) Seeds of plant species selected from corn (Zea mays), soybean (Glycine max), velvetleaf (Abutilon theophrasti), lambsquarters (Chenopodium album), poinsettia, wild (wild poinsettia, Euphorbia heterophylla), pigweed, palmer (palmer pigweed, Amaranthus palmeri), waterhemp (common waterhemp, Amaranthus rudis), surinam grass (Brachiaria decumbens), crabgrass, Brazil (Brazilian crabgrass, Digitaria horizontalis), panicum, fall (fall panicum Panicum dichotomiflorum), crabgrass, large (large crabgrass, Digitaria sanguinalis), foxtail, giant (giant foxtail, Setaria faberii), foxtail, green (green foxtail Setaria viridis), goosegrass (Eleusine indica), ragweed (common ragweed, Ambrosia elatior), barnyardgrass (Echinochloa crus-galli), sandbur (southern sandbur, Cenchrus echinatus), arrowleaf sida (Sida rhombifolia), ryegrass, Italian (Italian ryegrass, Lolium multiflorum), dayflower, VA (Virginia (VA) dayflower, Commelina virginica), field bindweed (Convolvulus arvensis), cocklebur (common cocklebur, Xanthium strumarium), morningglory (Ipomoea coccinea), nightshade (eastern black nightshade, Solanum ptycanthum), kochia (Kochia scoparia), nutsedge, yellow (yellow nutsedge, Cyperus esculentus), johnsongrass (Sorghum halepense), smartweed (ladysthumb smartweed, Polygonum persicaria), and beggarticks (hairy beggarticks, Bidens pilosa), were planted into a silt loam soil and treated preemergence with test chemicals formulated in a non-phytotoxic solvent mixture which included a surfactant. At the same time, plants selected from these crop and weed species and also pigweed (Amaranthus retroflexus), waterhemp_RES1 (ALS/Triazine resistant common waterhemp, Amaranthus rudis) and waterhemp_RES2 (ALS/HPPD resistant common waterhemp, Amaranthus rudis) were planted in pots containing a planting medium comprising spaghnum peat moss, vermiculite, wetting agent and starter nutrients treated with postemergence applications of some of the test chemicals formulated in the same manner. Plants ranged in height from 2 to 18 cm for postemergence treatments (1- to 4-leaf stage).
as §3

[9] = tested on: waterhemp_RES1 (ALS/Triazine resistant common waterhemp, Amaranthus rudis); assay: Test F postemergence: waterhemp_RES1; conditions: scale 0 to 100
Excerpt: as §4, §3

Waterhemp = assay: Test C preemergence: waterhemp; conditions: scale 0 (no effect) to 100 (complete control)

Cc1nn(-c2ccc(F)cc2)nc1Cc1ccnc(C(F)(F)F)c1 [Compound 16, 4-[[2-(4-fluorophenyl)-5-methyl-2H-1,2,3-triazol-4-yl]methyl]-2-(trifluoromethyl)pyridine]
HETLI plant response rating (scale of 0 to 100) ([1]; Rate 8 g/ha): 0
HETLI plant response rating (scale of 0 to 100) ([1]; Rate 16 g/ha): 60
Plant response rating: Dayflower, VA ([2]; Preemergence, 8 g ai/ha): 0
Plant response rating: Dayflower, VA ([2]; Preemergence, 16 g ai/ha): 0
Plant response rating: Dayflower, VA ([2]; Preemergence, 31 g ai/ha): 35
Plant response rating: Dayflower, VA ([2]; Preemergence, 62 g ai/ha): 50
Plant response rating: Dayflower, VA ([2]; Preemergence, 125 g ai/ha): 85
CYPDI plant response rating (scale of 0 to 100) ([3]; Rate 8 g/ha): 85
CYPDI plant response rating (scale of 0 to 100) ([3]; Rate 16 g/ha): 85
ORYSP plant response rating (scale of 0 to 100) ([4]; Rate 8 g/ha): 10
ORYSP plant response rating (scale of 0 to 100) ([4]; Rate 16 g/ha): 15
Plant response rating: Ragweed ([5]; 8 g ai/ha): 0
Plant response rating: Ragweed ([5]; 16 g ai/ha): 0
Plant response rating: Ragweed ([5]; 31 g ai/ha): 0
Plant response rating: Ragweed ([5]; 62 g ai/ha): 30
Plant response rating: Ragweed ([5]; 125 g ai/ha): 30
ECHCG plant response rating (scale of 0 to 100) ([6]; Rate 8 g/ha): 25
ECHCG plant response rating (scale of 0 to 100) ([6]; Rate 16 g/ha): 35

Cc1nn(-c2ccc(C(F)(F)F)cc2)nc1Cc1ccnc(C(F)(F)F)c1 [Compound 47, 4-[[5-methyl-2-[4-(trifluoromethyl)phenyl]-2H-1,2,3-triazol-4-yl]methyl]-2-(trifluoromethyl)pyridine]
Plant response rating: Morningglory ([7]; 16 g ai/ha): 15
Plant response rating: Morningglory ([7]; 31 g ai/ha): 30
Plant response rating: Morningglory ([7]; 62 g ai/ha): 35
Plant response rating: Morningglory ([7]; 125 g ai/ha): 40
Plant response rating: Morningglory ([7]; 250 g ai/ha): 65
Plant response rating: Dayflower, VA ([2]; Postemergence, 250 g ai/ha): 30
Plant response rating: Dayflower, VA ([2]; Postemergence, 16 g ai/ha): 10
Plant response rating: Dayflower, VA ([2]; Postemergence, 31 g ai/ha): 10
Plant response rating: Dayflower, VA ([2]; Postemergence, 62 g ai/ha): 20
Plant response rating: Dayflower, VA ([2]; Postemergence, 125 g ai/ha): 25
Plant response rating: Ragweed ([5]; 16 g ai/ha): 0
Plant response rating: Ragweed ([5]; 31 g ai/ha): 0
Plant response rating: Ragweed ([5]; 62 g ai/ha): 10
Plant response rating: Ragweed ([5]; 125 g ai/ha): 50
Plant response rating: Ragweed ([5]; 250 g ai/ha): 90

Cc1nn(-c2ccc(F)cc2)nc1Oc1ccnc(C(F)(F)F)c1 [Compound 129, 4-[[2-(4-fluorophenyl)-5-methyl-2H-1,2,3-triazol-4-yl]oxy]-2-(trifluoromethyl)pyridine]
Plant response rating: Morningglory ([7]; 8 g ai/ha): 0
Plant response rating: Morningglory ([7]; 16 g ai/ha): 0
Plant response rating: Morningglory ([7]; 31 g ai/ha): 0
Plant response rating: Morningglory ([7]; 62 g ai/ha): 40
Plant response rating: Morningglory ([7]; 125 g ai/ha): 50
HETLI plant response rating (scale of 0 to 100) ([1]; Rate 16 g/ha): 0
HETLI plant response rating (scale of 0 to 100) ([1]; Rate 31 g/ha): 40
HETLI plant response rating (scale of 0 to 100) ([1]; Rate 32 g/ha): 25
CYPDI plant response rating (scale of 0 to 100) ([3]; Rate 16 g/ha): 0
CYPDI plant response rating (scale of 0 to 100) ([3]; Rate 31 g/ha): 75
CYPDI plant response rating (scale of 0 to 100) ([3]; Rate 32 g/ha): 48
ORYSP plant response rating (scale of 0 to 100) ([4]; Rate 16 g/ha): 0
ORYSP plant response rating (scale of 0 to 100) ([4]; Rate 31 g/ha): 5
ORYSP plant response rating (scale of 0 to 100) ([4]; Rate 32 g/ha): 10
Plant response rating: Ragweed ([5]; 8 g ai/ha): 0
Plant response rating: Ragweed ([5]; 16 g ai/ha): 0
Plant response rating: Ragweed ([5]; 31 g ai/ha): 5
Plant response rating: Ragweed ([5]; 62 g ai/ha): 20
Plant response rating: Ragweed ([5]; 125 g ai/ha): 20
ECHCG plant response rating (scale of 0 to 100) ([6]; Rate 16 g/ha): 0
ECHCG plant response rating (scale of 0 to 100) ([6]; Rate 31 g/ha): 15
ECHCG plant response rating (scale of 0 to 100) ([6]; Rate 32 g/ha): 5

Cc1nn(-c2ccc(F)c(F)c2)nc1Oc1ccnc(C(F)(F)F)c1 [Compound 145]
Plant response rating, Waterhemp, Res2 ([8]; 125 g ai/ha): 85
Plant response rating, Waterhemp, Res1 ([9]; 125 g ai/ha): 90

Cc1nn(-c2ccc(C(F)(F)F)c(F)c2)nc1Cc1ccnc(C(F)(F)F)c1 [Compound 162]
Plant response rating, Waterhemp, Res2 ([8]; 4 g ai/ha): 75
Plant response rating, Waterhemp, Res2 ([8]; 8 g ai/ha): 90
Plant response rating, Waterhemp, Res2 ([8]; 16 g ai/ha): 90
Plant response rating, Waterhemp, Res2 ([8]; 31 g ai/ha): 95
Plant response rating, Waterhemp, Res2 ([8]; 62 g ai/ha): 100
Plant response rating, Waterhemp, Res1 ([9]; 4 g ai/ha): 70
Plant response rating, Waterhemp, Res1 ([9]; 8 g ai/ha): 90
Plant response rating, Waterhemp, Res1 ([9]; 16 g ai/ha): 90
Plant response rating, Waterhemp, Res1 ([9]; 31 g ai/ha): 95
Plant response rating, Waterhemp, Res1 ([9]; 62 g ai/ha): 95

CCc1nn(-c2ccc(F)cc2)nc1Oc1ccnc(C(F)(F)F)c1 [Compound 166]
Plant response rating, Waterhemp (Waterhemp; 31 g ai/ha): 55

CCOc1nn(-c2ccc(Br)cc2)nc1Cc1ccnc(C(F)(F)F)c1 [Compound 189]
Plant response rating, Waterhemp (Waterhemp; 16 g ai/ha): 90
Plant response rating, Waterhemp (Waterhemp; 31 g ai/ha): 98
